Data set [1] deals with CT26 tumor cells. The data set is described as follows: Subcutaneous syngeneic colorectal cancer model CT26 in female BALB/c mice. Type of data set: in vivo, mouse. The note with it: Compound 29 30 mg/kg p.o. (QD or BID) in combination with anti-PD1 10 mg/kg i.p. BIW; FIG. 3. How it is done:
The objective of this pharmacology study was to evaluate the anti-tumor growth efficacy of Compound 29 with in combination with anti-PD1 antibody (BP0146) or Isotype IgG2a (BP0089) in the treatment of the subcutaneous CT26 murine colorectal cancer model in female BALB/c mice.
Test particles were delivered via PO when the average tumor volume reached approximately 80 mm^3. Test articles was assessed at dose levels as described in Table 6. Tumor volumes and body weight were measured after the initiation of treatment.
The CT26 tumor cells were maintained in vitro with RPMI-1640 medium supplemented with 10% fetal bovine serum at 37° C. in an atmosphere of 5% CO^2 in air. The cells in exponential growth phase was harvested and quantitated by cell counter before tumor inoculation.
Each mouse was inoculated subcutaneously in the right lower flank region with CT26 tumor cells (5×10^5) in 0.1 ml of PBS for tumor development. […]
Tumor volumes were measured thrice per week after randomization in two dimensions using a caliper, and the volume was expressed in mm^3 using the formula: V=(L×W×W)/2, where V is tumor volume, L is tumor length (the longest tumor dimension) and W is tumor width (the longest tumor dimension perpendicular to L). […]
Tumor growth inhibition (TGI): TGI % is an indication of antitumor activity, and expressed as: TGI (%)=100×(1−T/C). […]

For data set [2], the system named is H22 tumor cells. Briefly: Subcutaneous H22 murine liver cancer model in female BALB/c mice. Type of data set: in vivo. Also noted: Dunnett's multiple comparisons test Mean Diff.: unit: mm3. The following applies: for TGI (%): day 12; for Dunnett's multiple comparisons test Mean Diff.: tumor volume. Here is the method:
The objective of this pharmacology study was to evaluate the anti-tumor growth efficacy of Compound 85 with in combination with anti-PD1 antibody (BP0146) in the treatment of the subcutaneous H22 murine liver cancer model in female BALB/c mice. Compound 85 test particles were delivered via PO when the average tumor volume reached approximately 80 mm^3. Compound 85 was assessed at 4 different dose levels (2 mpk, 6 mpk, 10 mpk, and 20 mpk for QD) in combination with anti-PD1 antibody (10 mpk, BIW). Tumor volumes and body weight were measured three times per week after the initiation of treatment.
The H22 tumor cells were maintained in vitro with RPMI-1640 medium supplemented with 10% fetal bovine serum at 37° C. in an atmosphere of 5% CO2. Cells in the exponential growth phase were harvested and quantified by cell counter before tumor inoculation.
Each mouse was inoculated subcutaneously in the right front flank region with H22 tumor cells (1×10e6) in 0.1 ml of PBS for tumor development.
After tumor inoculation, the animals were checked daily for morbidity and mortality. During routine monitoring, the animals were checked for any effects of tumor growth and treatments on behavior such as mobility, food and water consumption, body weight gain/loss (Body weights were measured thrice per week after randomization), eye/hair matting and any other abnormalities. Mortality and observed clinical signs were recorded for individual animals in detail.
Tumor volumes were measured three times per week after randomization in two dimensions using a caliper, and the volume was expressed in mm3 using the formula: V=(L×W×W)/2, where V is tumor volume, L is tumor length (the longest tumor dimension) and W is tumor width (the longest tumor dimension perpendicular to L). Dosing, as well as tumor and body weight measurements, were conducted in a Laminar Flow Cabinet.
Tumor growth inhibition (TGI): TGI % is an indication of antitumor activity, expressed as: TGI (%)=100×(1−T/C). T and C are the mean tumor volume (or weight) of the treated and control groups on a given day.
The treatment was performed for 21 days and the study was terminated on day 20 post dosing initiation.

On to `C[C@H]1CCCN(Cc2cc(C(F)(F)F)c3cn(-c4cccc(C5(Cc6nncn6C)COC5)c4)c(=O)n3c2)C1` [Compound 29], for which the “tumor growth inhibition of CT26 tumors” value in data set [1] was “further enhanced”.
Turning to `C[C@H]1CCCN(Cc2cc(C(F)(F)F)c3cn(-c4cccc([C@H](c5nncn5C)C5CCC5)c4)c(=O)n3c2)C1` [Compound 85], the “TGI (%)” value in data set [2] (Compound 85 2 mpk QD p.o. + anti-PD1 10 mpk BIW vs. Vehicle + isotype) is on record as 74.8%; in data set [2] (Compound 85 6 mpk QD p.o. + anti-PD1 10 mpk BIW vs. Vehicle + isotype), 82.87%; in data set [2] (Compound 85 10 mpk QD p.o. + anti-PD1 10 mpk BIW vs. Vehicle + isotype), 85.2%; in data set [2] (Compound 85 20 mpk QD p.o. + anti-PD1 10 mpk BIW vs. Vehicle + isotype), 87.73%. Besides, the “tumor inhibition compared with anti-PD1 alone” value in data set [2] (Compound 85 10 mpk QD and 20 mpk QD + anti-PD1 combination) is given as “statistically significant increase”. For the same compound, the complete regression result in data set [2] (Compound 85 20 mpk QD and anti-PD1 combination group, day 20) was “One complete regression”. Moreover, the “benefit in combination with anti-PD1” value in data set [2] (Compound 85 + anti-PD1) is “additive or synergistic benefit”. In addition, the “anti-tumor efficacy compared to single agent treatment” value in data set [2] (Compound 85 at 2, 6, 10 and 20 mpk in combination with Anti-PD-1) was “increased anti-tumor efficacy”. In addition, in data set [2] (Compound 85 up to 20 mpk QD in combination with anti-PD1), the tolerability entry was “No tolerability issue”. Further, the “Dunnett's multiple comparisons test Mean Diff.” value in data set [2] (Vehicle + isotype vs. Compound 85 2 mpk QD + anti-PD1) stood at 2158; in data set [2] (Vehicle + isotype vs. Compound 85 6 mpk QD + anti-PD1), 2391; in data set [2] (Vehicle + isotype vs. Compound 85 10 mpk QD + anti-PD1) it was 2458; in data set [2] (Vehicle + isotype vs. Compound 85 20 mpk QD + anti-PD1), 2531. Also, the “loss of average body weight” value in data set [2] (day 2 of treatment, Compound 85 20 mpk QD and anti-PD1 combination) is on record as “less than 5%”.

The values above are taken from patent US20250375428A1, “CBL-B INHIBITORS AND ANTI-PD1/ANTI-PD-L1 FOR USE IN THE TREATMENT OF CANCER” (HOTSPOT THERAPEUTICS, INC., priority 2022, published 2025).
